Laboratory results published in patent US10947237B2, “Antimicrobial compounds and methods of making and using the same” (BIOVERSYS AG, priority 2015, dated 2021).

Assays:
[1] = system: Eschericia coli (E. Coli) strain ATCC25922; experiment: standard microdilution assay, minimum inhibitory concentration (MIC); format: cell-based; details: Escherichia coli; Table 2; strain ATCC25922
Description: (§1) The in vitro activity of the compounds of the present disclosure can be determined. Antimicrobial testing is typically performed to determine the minimum inhibitory concentration (MIC). Minimum inhibitory concentrations (MICs) are determined by the microdilution method in a final volume of 100 μl according to protocols outlined by The Clinical and Laboratory Standards Institute (CLSI). Performance standards for reference strains are assessed within the same experimental design to maintain quality control. See, for example, Clinical Laboratory Standards Institute: Methods for dilution antimicrobial susceptibility tests for bacteria that grow aerobically M7-A8. Approved Standard-Eighth Edition. Wayne, Pa.: CLSI; December 2008; and Clinical Laboratory Standards Institute: Performance Standards for Antimicrobial Susceptibility Testing M100-S20; Approved Standard-Twentieth Edition. Wayne, Pa.: CLSI; June 2010. The compounds of the present disclosure were tested for antimicrobial activity. The Compounds 1-149 were run against Eschericia coli (E. Coli) strain ATCC25922 and against Staphylococcus aureus (S. aureus) 11540 strain using a standard microdilution assay to determine minimum inhibitory concentrations (MICs). […] It will be recognized by one skilled in the art that the compounds can be assessed against other bacterial organisms and that the presentation of data for activity against Eschericia coli and Staphylococcus aureus are illustrative and in no way is intended to limit the scope of the present disclosure. The compounds of the present disclosure can be assayed against a range of other microorganisms depending upon the performance activity desired to be gathered. Furthermore, the “+” and “−” representation and the selection of a cutoff value of 16 micrograms/mL is also illustrative and in no way is intended to limit the scope of the present disclosure.

[2] = system: Staphylococcus aureus (S. aureus) 11540 strain; experiment: as above; format: cell-based; details: Table 2, 11540 strain
Description: as §1

| Compound | MIC [1] | MIC [2] |
| --- | --- | --- |
| C=C[C@@H](CCNC(=N)N)OCc1ccc(-n2cc3cc(CCNC4CCNCC4)[nH]c3nc2=O)cc1 [Compound 93] | > 16 µg/mL | > 16 µg/mL |
| N=C(N)NCC[C@@H]1C[C@H](CN)O[C@@H](c2ccc(-n3cc4cc(C5CCNC5)[nH]c4nc3=O)cc2)C1 (stereo partly shown) [Compound 98] | > 16 µg/mL | > 16 µg/mL |
| N=C(N)NCC[C@H](CNc1ccccn1)OCc1ccc(-n2cc3cc(C4CCNC4)[nH]c3nc2=O)cc1 (stereo partly shown) [Compound 103] | > 16 µg/mL | > 16 µg/mL |
| N=C(N)NCC[C@H](CNc1ccccn1)OCc1ccc(-n2cc3cc(CCNC4CCNCC4)[nH]c3nc2=O)cc1 [Compound 105] | > 16 µg/mL | > 16 µg/mL |
| C[C@H](N)CCCc1cc(Cl)c(F)c(-c2[nH]c3nc(=O)n(-c4ccc(CN[C@H](C)CCNC(=N)N)cc4)cc3c2[N+](=O)[O-])c1 [Compound 109] | > 16 µg/mL | ≤ 16 µg/mL |
| C[C@H](N)CCCc1cc(-c2[nH]c3nc(=O)n(-c4ccc([C@H](C)NCCCNC(=N)N)cc4)cc3c2[N+](=O)[O-])c(F)c(Cl)c1[N+](=O)[O-] [Compound 110] | > 16 µg/mL | > 16 µg/mL |
| C[C@H](N)CCCc1cc(Cl)c(F)c(-c2[nH]c3nc(=O)n(-c4ccc([C@H](C)NCCCNC(=N)N)cc4)cc3c2[N+](=O)[O-])c1[N+](=O)[O-] [Compound 111] | > 16 µg/mL | ≤ 16 µg/mL |
| C[C@@H](CCNC(=N)N)OCc1ccc(-n2cc3cc(CCNC4CCNCC4)[nH]c3nc2=O)cc1 [Compound 112] | > 16 µg/mL | > 16 µg/mL |
| CC1=NCC[C@@H]2CCC[C@@H](c3ccc(-n4cc5cc(C6CCNC6)[nH]c5nc4=O)cc3)N12 (stereo partly shown) [Compound 116] | > 16 µg/mL | > 16 µg/mL |
| CC(=N)NCC[C@@H]1CCC[C@@H](c2ccc(-n3cc4cc(CCNC5CCNCC5)[nH]c4nc3=O)cc2)N1 [Compound 117] | ≤ 16 µg/mL | ≤ 16 µg/mL |
| CC1=NCC[C@@H]2CCC[C@@H](c3ccc(-n4cc5cc(CCNC6CCNCC6)[nH]c5nc4=O)cc3)N12 [Compound 118] | > 16 µg/mL | > 16 µg/mL |
| C[C@H](N)CCCc1cc(Cl)c(F)c(-c2cc3cn(-c4ccc([C@H]5CC(N)C[C@H](CCNC(=N)N)O5)cc4)c(=O)nc3[nH]2)c1 (stereo partly shown) [Compound 119] | ≤ 16 µg/mL | ≤ 16 µg/mL |
| CC(=N)NCC[C@H]1CC(N)C[C@H](c2ccc(-n3cc4cc(-c5cc(CCC[C@H](C)N)cc(Cl)c5F)[nH]c4nc3=O)cc2)O1 (stereo partly shown) [Compound 120] | ≤ 16 µg/mL | ≤ 16 µg/mL |
| N=C(N)NCC[C@H]1CC(N)C[C@H](c2ccc(-n3cc4cc(C5CCNC5)[nH]c4nc3=O)cc2)O1 (stereo partly shown) [Compound 121] | ≤ 16 µg/mL | > 16 µg/mL |
| N=C(N)NCC[C@H]1CC(N)C[C@H](c2ccc(-n3cc4cc(CCNC5CCNCC5)[nH]c4nc3=O)cc2)O1 (stereo partly shown) [Compound 122] | ≤ 16 µg/mL | ≤ 16 µg/mL |
| C[C@H](N)CCCc1cc(Cl)c(F)c(-c2cc3cn(-c4ccc([C@@H]5C[C@@H](Nc6nccs6)C[C@@H](CCNC(=N)N)O5)cc4)c(=O)nc3[nH]2)c1 [Compound 123] | > 16 µg/mL | ≤ 16 µg/mL |
| N=C(N)NCC[C@@H]1C[C@H](Nc2nccs2)C[C@@H](c2ccc(-n3cc4cc(C5CCNC5)[nH]c4nc3=O)cc2)O1 (stereo partly shown) [Compound 124] | > 16 µg/mL | > 16 µg/mL |
| N=C(N)NCC[C@@H]1C[C@@H](Nc2nccs2)C[C@@H](c2ccc(-n3cc4cc(C5CCNC5)[nH]c4nc3=O)cc2)O1 (stereo partly shown) [Compound 125] | > 16 µg/mL | > 16 µg/mL |
| N=C(N)NCC[C@H](CF)NCc1ccc(-n2cc3cc(C4CCNC4)[nH]c3nc2=O)cc1 (stereo partly shown) [Compound 126] | > 16 µg/mL | > 16 µg/mL |
| C[C@H](N)CCCc1cc(Cl)c(F)c(-c2cc3cn(-c4ccc([C@H]5CC(N)C[C@H](CCN)O5)cc4)c(=O)nc3[nH]2)c1 (stereo partly shown) [Compound 127] | ≤ 16 µg/mL | ≤ 16 µg/mL |
| C[C@H](N)CCCc1cc(Cl)c(F)c(-c2cc3cn(-c4ccc([C@H]5CC(NC(=N)N)C[C@H](CCNC(=N)N)O5)cc4)c(=O)nc3[nH]2)c1 (stereo partly shown) [Compound 128] | ≤ 16 µg/mL | ≤ 16 µg/mL |
| N=C(N)NCC[C@H](CNC(=N)N)OCc1ccc(-n2cc3cc(C4CCNC4)[nH]c3nc2=O)cc1 (stereo partly shown) [Compound 129] | ≤ 16 µg/mL | ≤ 16 µg/mL |
| O=c1nc2[nH]c(C3CCNC3)cc2cn1-c1ccc([C@@H]2CCC[C@@H](CCc3ncc[nH]3)N2)cc1 (stereo partly shown) [Compound 130] | ≤ 16 µg/mL | > 16 µg/mL |
| C[C@@H](CCNC(=N)N)OCc1ccc(-n2cc3cc(C4CCNC4)[nH]c3nc2=O)cc1 (stereo partly shown) [Compound 131] | > 16 µg/mL | > 16 µg/mL |
| C=C[C@@H](CCNC(=N)N)OCc1ccc(-n2cc3cc(-c4cc(CCC[C@H](C)N)cc(Cl)c4F)[nH]c3nc2=O)cc1 [Compound 132] | ≤ 16 µg/mL | ≤ 16 µg/mL |
| C[C@H](N)CCCc1cc(Cl)c(F)c(-c2cc3cn(-c4ccc(N5CCO[C@H](CCNC(=N)N)C5)cc4)c(=O)nc3[nH]2)c1 [Compound 133] | ≤ 16 µg/mL | ≤ 16 µg/mL |
| C[C@H](N)CCCc1cc(Cl)c(F)c(-c2cc3cn(-c4ccc(N5CCO[C@@H](CCNC(=N)N)C5)cc4)c(=O)nc3[nH]2)c1 [Compound 134] | ≤ 16 µg/mL | ≤ 16 µg/mL |
| C[C@H](N)CCCc1cc(Cl)c(F)c(-c2cc3cn(-c4ccc(CO[C@@H](CF)CCNC(=N)N)cc4)c(=O)nc3[nH]2)c1 [Compound 135] | ≤ 16 µg/mL | ≤ 16 µg/mL |
| N=C(N)NCC[C@H](CF)OCc1ccc(-n2cc3cc(C4CCNC4)[nH]c3nc2=O)cc1 (stereo partly shown) [Compound 136] | > 16 µg/mL | > 16 µg/mL |
| CC(=N)NCC[C@H]1CC(NC(C)=N)C[C@H](c2ccc(-n3cc4cc(-c5cc(CCC[C@H](C)N)cc(Cl)c5F)[nH]c4nc3=O)cc2)O1 (stereo partly shown) [Compound 137] | ≤ 16 µg/mL | ≤ 16 µg/mL |

Results, then the compound that gave them:

| MIC [1] | MIC [2] | Compound |
| --- | --- | --- |
| ≤ 16 µg/mL | ≤ 16 µg/mL | C[C@H](N)CCCc1cc(Cl)c(F)c(-c2cc3cn(-c4ccc(CN[C@H](CCNC(=N)N)CNc5cc(F)ccn5)cc4)c(=O)nc3[nH]2)c1 [Compound 91] |
| ≤ 16 µg/mL | ≤ 16 µg/mL | C[C@H](N)CCCc1cc(Cl)c(F)c(-c2cc3cn(-c4ccc(N5CCOC(CCNC(=N)N)C5)cc4)c(=O)nc3[nH]2)c1 (stereo partly shown) [Compound 92] |
| ≤ 16 µg/mL | > 16 µg/mL | O=c1nc2[nH]c(C3CCNC3)cc2cn1-c1ccc([C@@H]2CCC[C@@H](CCNc3ncc[nH]3)N2)cc1 (stereo partly shown) [Compound 94] |
| ≤ 16 µg/mL | ≤ 16 µg/mL | O=c1nc2[nH]c(CCNC3CCNCC3)cc2cn1-c1ccc([C@@H]2CCC[C@@H](CCNc3ncc[nH]3)N2)cc1 [Compound 95] |
| ≤ 16 µg/mL | ≤ 16 µg/mL | C[C@H](N)CCCc1cc(Cl)c(F)c(-c2cc3cn(-c4ccc([C@H]5C[C@H](CCNC(=N)N)C[C@H](CN)O5)cc4)c(=O)nc3[nH]2)c1 [Compound 96] |
| ≤ 16 µg/mL | ≤ 16 µg/mL | CC(=N)NCC[C@@H]1C[C@H](CN)O[C@@H](c2ccc(-n3cc4cc(-c5cc(CCC[C@H](C)N)cc(Cl)c5F)[nH]c4nc3=O)cc2)C1 [Compound 97] |
| ≤ 16 µg/mL | > 16 µg/mL | N=C(N)NCC[C@@H]1C[C@H](CN)O[C@@H](c2ccc(-n3cc4cc(CCNC5CCNCC5)[nH]c4nc3=O)cc2)C1 [Compound 99] |
| ≤ 16 µg/mL | ≤ 16 µg/mL | N=C(N)NCC[C@@H]1CCC[C@@H](c2ccc(-n3cc4cc(C5CCNC5)[nH]c4nc3=O)cc2)N1 (stereo partly shown) [Compound 100] |
| ≤ 16 µg/mL | ≤ 16 µg/mL | N=C(N)NCC[C@@H]1CCC[C@@H](c2ccc(-n3cc4cc(CCNC5CCNCC5)[nH]c4nc3=O)cc2)N1 [Compound 101] |
| ≤ 16 µg/mL | ≤ 16 µg/mL | O=c1nc2[nH]c(CCNC3CCNCC3)cc2cn1-c1ccc([C@@H]2CCC[C@@H](CCc3ncc[nH]3)N2)cc1 [Compound 102] |
| ≤ 16 µg/mL | ≤ 16 µg/mL | N=C(N)NCC[C@H](CNc1ncc[nH]1)OCc1ccc(-n2cc3cc(CCNC4CCNCC4)[nH]c3nc2=O)cc1 [Compound 104] |
| ≤ 16 µg/mL | ≤ 16 µg/mL | C[C@H](N)CCCc1cc(Cl)c(F)c(-c2cc3cn(-c4ccc(CN[C@H](CCNC(=N)N)CNc5ncccc5F)cc4)c(=O)nc3[nH]2)c1 [Compound 106] |
| ≤ 16 µg/mL | ≤ 16 µg/mL | C[C@H](N)CCCc1cc(Cl)c(F)c(-c2cc3cn(-c4ccc(CN[C@@H](CF)CCNC(=N)N)cc4)c(=O)nc3[nH]2)c1 [Compound 107] |
| ≤ 16 µg/mL | ≤ 16 µg/mL | C[C@H](N)CCCc1cc(Cl)c(F)c(-c2cc3cn(-c4ccc([C@@H]5C[C@H](Nc6nccs6)C[C@@H](CCNC(=N)N)O5)cc4)c(=O)nc3[nH]2)c1 [Compound 108] |
| ≤ 16 µg/mL | > 16 µg/mL | N=C(N)NCC[C@H](CNc1ncc[nH]1)OCc1ccc(-n2cc3cc(C4CCNC4)[nH]c3nc2=O)cc1 (stereo partly shown) [Compound 113] |
| ≤ 16 µg/mL | ≤ 16 µg/mL | N=C(N)NCC[C@H](CNC(=N)N)OCc1ccc(-n2cc3cc(CCNC4CCNCC4)[nH]c3nc2=O)cc1 [Compound 114] |
| ≤ 16 µg/mL | ≤ 16 µg/mL | CC(=N)NCC[C@@H]1CCC[C@@H](c2ccc(-n3cc4cc(C5CCNC5)[nH]c4nc3=O)cc2)N1 (stereo partly shown) [Compound 115] |
